Where two headings read alike, the source gives them in different places.
Legend:
RPE-Neo or RPE-MYC cells = experiment: MTT assay of cellular proliferation; assay type: cell-based; conditions: compounds at 20 nM to 20 μM; read-out: Min. Effective conc. for Proliferative arrest (>50%)
Protocol: Human cancer cell lines were obtained from ATCC and cultured in DMEM (Gibco, Cleveland. TN, USA) supplemented with 5% fetal bovine serum (Gibco), penicillin (100 U/mL)-streptomycin (100 μg/mL) (Gibco, Cat. No. 15140-122), 2 mM L-glutamine (Gibco, 200 mM solution, Cat. No. 25030081), and 1 mM sodium pyruvate (Gibco, 100 mM solution, Cat. No. 11360070) at 37° C. in a humidified incubator that was maintained at 5% CO2.
(§1) Screening was conducted as described before (Li et al. 2019). Briefly, RPE-Neo or RPE-MYC or RPE-MYC expressing an EGFP-Histone 2B fusion protein were passaged as batches of 96-well plates, 18-24 hours before exposure to the chemical compounds of the present disclosure at concentrations from 20 nM to 20 μM. At 24, 48 or 72 hours after initiation of treatment, cells were analyzed for either an arrest in mitosis or a change in DNA content by GE 1N-Cell Analyzer 2000. MTT assays of cellular proliferation were performed as previously described (Li et al. 2019).
(§2) As set forth in table 2 below, an values of greater than or equal to 1 nM and less than or equal to 1.0 μM is marked “A”; a value greater than 1.00 μM and less than or equal to 10.0 μM is marked “B”; a value greater than 10.0 μM and less than or equal to 30.0 μM is marked “C”; and a value greater than 30.0 μM and less than 1000 μM is marked “D.”

[1] = system: RPE-Neo or RPE-MYC or RPE-MYC expressing an EGFP-Histone 2B fusion protein; experiment: Phenotypic screening assay (arrest in mitosis or change in DNA content, IN-Cell Analyzer); assay type: cell-based; conditions: compounds at 20 nM to 20 μM, analysed 24, 48 or 72 hours after initiation of treatment
Protocol: as §1, §2

[2] = read-out: Min. Effective conc. for Along with Cell Death
[3] = read-out: Min. Effective conc. for Mitotic Arrest (>5%)
[4] = read-out: Min. Effective conc. for Polyploidy (≥5%)

For Cc1ccc(CN2C(=O)CC(c3nnc(C4CC4)o3)=C(Br)c3ccc(C(F)(F)F)cc32)cc1F [Compound 20-14, 5-bromo-4-(5-cyclopropyl-1,3,4-oxadiazol-2-yl)-1-(3-fluoro-4-methylbenzyl)-8-(trifluoromethyl)-1,3-dihydro-2H-benzo[b]azepin-2-one], the minimal effective concentration (RPE-Neo or RPE-MYC cells) was 0.001 to 1 µM, the minimal effective concentration [1, 2] was 0.001 to 1 µM and the minimal effective concentration [1, 3] was 0.001 to 1 µM. It also gave a minimal effective concentration [1, 4] of 0.001 to 1 µM.

In the case of Cc1ccc(CN2C(=O)CC(c3nnc(N)s3)=C(Br)c3ccccc32)cc1F [Compound 15-2, 4-(5-amino-1,3,4-thiadiazol-2-yl)-5-bromo-1-(3-fluoro-4-methylbenzyl)-1,3-dihydro-2H-benzo[b]azepin-2-one], the minimal effective concentration (RPE-Neo or RPE-MYC cells) was 0.001 to 1 µM, the minimal effective concentration [1, 2] was 0.001 to 1 µM and the minimal effective concentration [1, 3] was 0.001 to 1 µM. The minimal effective concentration [1, 4] was 0.001 to 1 µM.

In the case of Cc1ccc(CN2C(=O)CC(c3nnc(C4CC4)o3)=C(Br)c3ccc(Cl)cc32)cc1F [Compound 20-9, 5-bromo-8-chloro-4-(5-cyclopropyl-1,3,4-oxadiazol-2-yl)-1-(3-fluoro-4-methylbenzyl)-1,3-dihydro-2H-benzo[b]azepin-2-one], the minimal effective concentration (RPE-Neo or RPE-MYC cells) was 0.001 to 1 µM, the minimal effective concentration [1, 2] was 0.001 to 1 µM and the minimal effective concentration [1, 3] was 0.001 to 1 µM. It also gave a minimal effective concentration [1, 4] of 0.001 to 1 µM.

Compound Cc1ccc(CN2C(=O)CC(CO[C@@H]3CCOC3)=C(Br)c3ccccc32)cc1F [Compound 44-5, (R)-5-bromo-1-(3-fluoro-4-methylbenzyl)-4-(((tetrahydrofuran-3-yl)oxy)methyl)-1,3-dihydro-2H-benzo[b]azepin-2-one] has a minimal effective concentration (RPE-Neo or RPE-MYC cells) of 0.001 to 1 µM, a minimal effective concentration [1, 2] of 0.001 to 1 µM and a minimal effective concentration [1, 3] of 0.001 to 1 µM. For the same compound, the minimal effective concentration [1, 4] was 0.001 to 1 µM.

Cc1ccc(CN2C(=S)CC(c3nnc(C4CC4)o3)=C(Br)c3ccccc32)cc1F [Compound 24-1, 5-bromo-4-(5-cyclopropyl-1,3,4-oxadiazol-2-yl)-1-(3-fluoro-4-methylbenzyl)-1,3-dihydro-2H-benzo[b]azepine-2-thione] was tested, and the minimal effective concentration (RPE-Neo or RPE-MYC cells) was 0.001 to 1 µM, the minimal effective concentration [1, 2] was 0.001 to 1 µM and the minimal effective concentration [1, 3] was 0.001 to 1 µM. It also gave a minimal effective concentration [1, 4] of 0.001 to 1 µM.

Cc1ccc(CN2C(=O)CC(c3cnco3)=C(Cl)c3ccc(O)cc32)cc1F [Compound 8-7, 5-chloro-1-(3-fluoro-4-methylbenzyl)-8-hydroxy-4-(oxazol-5-yl)-1,3-dihydro-2H-benzo[b]azepin-2-one] gave a minimal effective concentration (RPE-Neo or RPE-MYC cells) of 0.001 to 1 µM, a minimal effective concentration [1, 2] of 0.001 to 1 µM and a minimal effective concentration [1, 3] of 0.001 to 1 µM. The minimal effective concentration [1, 4] was 0.001 to 1 µM.

With COCC1=C(Br)c2ccccc2N(Cc2ccc(C)c(F)c2)C(=O)C1 [Compound 42, 5-bromo-1-(3-fluoro-4-methylbenzyl)-4-(methoxymethyl)-1,3-dihydro-2H-benzo[b]azepin-2-one] the minimal effective concentration (RPE-Neo or RPE-MYC cells) was 0.001 to 1 µM, the minimal effective concentration [1, 2] was 0.001 to 1 µM and the minimal effective concentration [1, 3] was 0.001 to 1 µM. The minimal effective concentration [1, 4] was 0.001 to 1 µM.

Compound [2H]C([2H])(c1ccc(C)c(F)c1)N1C(=O)CC(c2nnc(C3CC3)o2)=C(Br)c2ccccc21 [Compound 20-27, 5-bromo-4-(5-cyclopropyl-1,3,4-oxadiazol-2-yl)-1-((3-fluoro-4 methylphenyl)methyl-d2)-1,3-dihydro-2H-benzo[b]azepin-2-one] has a minimal effective concentration (RPE-Neo or RPE-MYC cells) of 0.001 to 1 µM, a minimal effective concentration [1, 2] of 0.001 to 1 µM and a minimal effective concentration [1, 3] of 0.001 to 1 µM. It also gave a minimal effective concentration [1, 4] of 0.001 to 1 µM.

Cc1ccc(CN2C(=O)CC(COCC3CCOC3)=C(Br)c3ccccc32)cc1F (stereo not drawn) [Compound 44-3] gave a minimal effective concentration (RPE-Neo or RPE-MYC cells) of 0.001 to 1 µM, a minimal effective concentration [1, 2] of 0.001 to 1 µM and a minimal effective concentration [1, 3] of 1 to 10 µM. It also gave a minimal effective concentration [1, 4] of 0.001 to 1 µM.

In the case of Cc1ccc(CN2C(=O)CC(COC3CCOC3)=C(Br)c3ccccc32)cc1F (stereo not drawn) [Compound 44-1, 5-bromo-1-(3-fluoro-4-methylbenzyl)-4-(((tetrahydrofuran-3-yl)oxy)methyl)-1,3-dihydro-2H-benzo[b]azepin-2-one], the minimal effective concentration (RPE-Neo or RPE-MYC cells) was 0.001 to 1 µM, the minimal effective concentration [1, 2] was 0.001 to 1 µM and the minimal effective concentration [1, 3] was 0.001 to 1 µM. It also gave a minimal effective concentration [1, 4] of 0.001 to 1 µM.

With Cc1ccc(CN2C(=O)CC(c3cnco3)=C(Br)c3ccc(Br)cc32)cc1F [Compound 8-3, 5,8-dibromo-1-(3-fluoro-4-methylbenzyl)-4-(oxazol-5-yl)-1,3-dihydro-2H-benzo[b]azepin-2-one] the minimal effective concentration (RPE-Neo or RPE-MYC cells) was 0.001 to 1 µM, the minimal effective concentration [1, 2] was 0.001 to 1 µM and the minimal effective concentration [1, 3] was 0.001 to 1 µM. The minimal effective concentration [1, 4] was 0.001 to 1 µM.

Cc1ccc(CN2C(=O)CC(c3cnco3)=C(Cl)c3ccc(C#N)cc32)cc1F [Compound 8-4, 5-chloro-1-(3-fluoro-4-methylbenzyl)-4-(oxazol-5-yl)-2-oxo-2,3-dihydro-1H-benzo[b]azepine-8-carbonitrile] showed a minimal effective concentration (RPE-Neo or RPE-MYC cells) of 0.001 to 1 µM, a minimal effective concentration [1, 2] of 0.001 to 1 µM and a minimal effective concentration [1, 3] of 0.001 to 1 µM. It also gave a minimal effective concentration [1, 4] of 0.001 to 1 µM.

Cc1ccc(CN2C(=O)CC(COCC3CCCO3)=C(Br)c3ccccc32)cc1F (stereo not drawn) [Compound 44-4, 5-bromo-1-(3-fluoro-4-methylbenzyl)-4-(((tetrahydrofuran-2-yl)methoxy)methyl)-1,3-dihydro-2H-benzo[b]azepin-2-one] gave a minimal effective concentration (RPE-Neo or RPE-MYC cells) of 1 to 10 µM, a minimal effective concentration [1, 2] of 1 to 10 µM and a minimal effective concentration [1, 3] of 1 to 10 µM. It also gave a minimal effective concentration [1, 4] of 1 to 10 µM.

Compound [2H]C(c1ccc(C)c(F)c1)N1C(=O)CC(c2nnc(C3CC3)o2)=C(Br)c2ccccc21 (stereo not drawn) [Compound 20-26, 5-bromo-4-(5-cyclopropyl-1,3,4-oxadiazol-2-yl)-1-((3-fluoro-4-methylphenyl)methyl-d)-1,3-dihydro-2H-benzo[b]azepin-2-one] has a minimal effective concentration (RPE-Neo or RPE-MYC cells) of 0.001 to 1 µM, a minimal effective concentration [1, 2] of 0.001 to 1 µM and a minimal effective concentration [1, 3] of 0.001 to 1 µM. The minimal effective concentration [1, 4] was 0.001 to 1 µM.

Cc1nnc(C2=C(Br)c3ccccc3N(Cc3ccc(C)c(F)c3)C(=O)C2)o1 [Compound 20-2, 5-bromo-1-(3-fluoro-4-methylbenzyl)-4-(5-methyl-1,3,4-oxadiazol-2-yl)-1,3-dihydro-2H-benzo[b]azepin-2-one] gave a minimal effective concentration (RPE-Neo or RPE-MYC cells) of 0.001 to 1 µM, a minimal effective concentration [1, 2] of 0.001 to 1 µM and a minimal effective concentration [1, 3] of 0.001 to 1 µM. It also gave a minimal effective concentration [1, 4] of 0.001 to 1 µM.

Work on Cc1ccc(CN2C(=O)CC(c3nnc(C4CC4)o3)=C(Br)c3cccc(C)c32)cc1F [Compound 20-18, 5-bromo-4-(5-cyclopropyl-1,3,4-oxadiazol-2-yl)-1-(3-fluoro-4-methylbenzyl)-9-methyl-1,3-dihydro-2H-benzo[b]azepin-2-one] yielded a minimal effective concentration (RPE-Neo or RPE-MYC cells) of 0.001 to 1 µM, a minimal effective concentration [1, 2] of 0.001 to 1 µM and a minimal effective concentration [1, 3] of 0.001 to 1 µM. For the same compound, the minimal effective concentration [1, 4] was 0.001 to 1 µM.

In the case of COC1=C(c2nc(C)no2)CC(=O)N(Cc2ccc(C)c(F)c2)c2cc(Br)ccc21 [Compound 10-1, 8-bromo-1-(3-fluoro-4-methylbenzyl)-5-methoxy-4-(3-methyl-1,2,4-oxadiazol-5-yl)-1,3-dihydro-2H-benzo[b]azepin-2-one], the minimal effective concentration (RPE-Neo or RPE-MYC cells) was 0.001 to 1 µM, the minimal effective concentration [1, 2] was 0.001 to 1 µM and the minimal effective concentration [1, 3] was 0.001 to 1 µM. For the same compound, the minimal effective concentration [1, 4] was 0.001 to 1 µM.

COc1ccc2c(c1)N(Cc1ccc(C)c(F)c1)C(=O)CC(c1cnco1)=C2Br [Compound 8-6, 5-bromo-1-(3-fluoro-4-methylbenzyl)-8-methoxy-4-(oxazol-5-yl)-1,3-dihydro-2H-benzo[b]azepin-2-one] showed a minimal effective concentration (RPE-Neo or RPE-MYC cells) of 0.001 to 1 µM, a minimal effective concentration [1, 2] of 0.001 to 1 µM and a minimal effective concentration [1, 3] of 0.001 to 1 µM. For the same compound, the minimal effective concentration [1, 4] was 0.001 to 1 µM.
